Data as given in US11406600B2, “Anhydrous dasatinib-containing preparation” (SAWAI PHARMACEUTICAL CO., LTD., priority 2017, dated 2022).

What was measured:
[1] = 1.2 million Lux.·hr total illumination and 200 W·hr/m^2 total near-ultraviolet radiation energy; cited from earlier work
[2] = Color change (ΔE) after light irradiation, spectral color contrast meter; format: physicochemical; settings: irradiated with 10000 Lux./hr of light for 5 days; based on color tone immediately after manufacturing; mean of 5 tablets
Experimental: Using a spectral color contrast meter (NIPPON DENSHOKU INDUSTRIES CO., LTD., Model: SE-6000), the color change ΔE value of the preparation irradiated with 10000Lux./hr of light for 5 days was measured based on the color tone of the preparation immediately after manufacturing, and the mean value of the measurement value of 5 tablets was calculated.
(§1) In the anhydrous dasatinib-containing tablet having the film-coating part, the amount of the film-coating part and the percentage of the titanium oxide in the film-coating part were varied, respectively, and the color change (ΔE) and the total related substances (%) of the preparations irradiated with 10000 Lux./hr of light for 5 days were determined, respectively.
For color change, the ΔE value of the amount of color change was measured using a spectral color contrast meter (NIPPON DENSHOKU INDUSTRIES CO., LTD., Model: SE-6000) based on the color tone of the drug product immediately after manufacturing, and the mean value of the measured value of 5 tablets was calculated.

[3] = Total related substances (%) by liquid chromatography after light irradiation; format: physicochemical; settings: irradiated with 10000 Lux./hr of light for 5 days; peak area ratio, LC, 230 nm
Experimental: In the description, the purities of the anhydrous dasatinib were evaluated using liquid chromatography as an assessment of the stability. The ratio of the peak area of related substances derived from the anhydrous dasatinib to that of the anhydrous dasatinib was calculated to determine the total related substances (%).
as §1
For the total related substances, the purities of the anhydrous dasatinib were evaluated using liquid chromatography as shown below. The ratio of the peak area of the related substances derived from the anhydrous dasatinib to that of the anhydrous dasatinib was calculated to determine the total related substances (%). Specifically, a column was octadecylsilated silica gels (particle size, 5 μm; column inner diameter, 4.6 mm; column length, 250 mm; GL Sciences), mobile phase A was 0.01 M aqueous potassium dihydrogen phosphate solution, mobile phase B was acetonitrile, and the detector was ultraviolet absorbance spectrophotometer (measured wavelength: 230 nm), respectively. […]

color change ΔE value [2]	total related substances (%) [3] [%]	Structure (SMILES)	stability under light stress testing [1]
–	–	Cc1nc(Nc2ncc(C(=O)Nc3c(C)cccc3Cl)s2)cc(N2CCN(CCO)CC2)n1 [dasatinib hydrate]	no changes were observed
18.56	0.51	Cc1nc(Nc2ncc(C(=O)Nc3c(C)cccc3Cl)s2)cc(N2CCN(CCO)CC2)n1 [Comparative Example 1, anhydrous dasatinib]	–
